Experimental data taken from patent US20240083839A1, “COMPOSITIONS AND METHODS FOR TREATING NEURODEGENERATIVE DISEASES AND DISORDERS” (The Regents of the University of California, priority 2020, published 2024).
Several values for one entry are separate records, joined by “and”; a condition that tells them apart may be missing. Identical values can stand only once. Like-named read-outs stand apart in the source and are kept apart here.

Assays:
[1] = test system: SirT1 levels in N2a-E4 cells; assay: SirT1 levels by AlphaLISA in ApoE4-transfected N2a cells; type: cell-based, murine
Experimental: Prompted by the emerging importance of the associations between ApoE4 and the expression/protein levels of SirT1, high-throughput screening (HTS) of the UCLA compound library was performed using AlphaLISA to detect SirT1 levels in murine neuroblastoma cells stably transfected with ApoE4 (E4-N2a) to identify SirT1 enhancers. […] In the in vivo study, mice were treated orally at 40 mkd (20 mg/kg BID) for 56 days and underwent assessment of cognition in the Novel Object Recognition (NOR) testing paradigm. […] The performance of A03-treated E4-AD mice (FIG. 5A) improved to level of non-transgenic vehicle-treated mice.
Wherever PAMPA is given: unit not given here.

PAMPA (PAMPA) | SMILES | SirT1 SOμM [1] | SirT1 SμM [1] | PAMPA (PAMPA; PAMPA)
5.63 | CC(C)CC(N)C(=O)OC(C)(C)Cc1ccc(Cl)cc1 (stereo not drawn) [MP-05, 1-(4-chlorophenyl)-2-methylpropan-2-yl 2-amino-4-methylpentanoate] | B (B >50%) | A (A >20%) | –
4.22 | Cc1ccc(CC(C)(C)OC(=O)C(C)N)cc1 (stereo not drawn) [MP-06, 2-methyl-1-p-tolylpropan-2-yl 2-aminopropanoate] | B (B >50%) | A (A >20%) | –
4.15 | CC(C)(Cc1ccc(Cl)cc1)OC(=O)CN [MP-07, 1-(4-chlorophenyl)-2-methylpropan-2-yl 2-aminoethanoate] | B (B >50%) | A (A >20%) | –
4.65 | CC(C)C(N)C(=O)OC(C)(C)Cc1ccc(Cl)cc1 (stereo not drawn) [MP-08, 1-(4-chlorophenyl)-2-methylpropan-2-yl 2-amino-3-methylbutanoate] | C (C = 100% increase versus control) | A (A >20%) | –
4.16 | CC(N)C(=O)OC1(Cc2ccc(Cl)cc2)CCC1 (stereo not drawn) [MP-09, 1-(4-chlorobenzyl)cyclobutyl 2-aminopropanoate] | A, A (A >20%) | A, A (A >20%) | –
6.58 | CC(N)C(=O)OC1(Cc2ccc(Cl)cc2)CCCCC1 (stereo not drawn) [MP-10, 1-(4-chlorobenzyl)cyclohexyl 2-aminopropanoate] | B (B >50%) | A (A >20%) | –
5.28 | CCC(C)C(N)C(=O)OC(C)(C)Cc1ccc(Cl)cc1 (stereo not drawn) [MP-11, 1-(4-chlorophenyl)-2-methylpropan-2-yl 2-amino-3-methylpentanoate] | A, A (A >20%) | A, A (A >20%) | –
4.95 | CC(N)C(=O)OC(C)(C)CCc1ccc(Cl)cc1 (stereo not drawn) [MP-12, 4-(4-chlorophenyl)-2-methylbutan-2-yl 2-aminopropanoate] | A, A (A >20%) | A, A (A >20%) | –
6.49 | CC(C)(Cc1ccc(Cl)cc1)OC(=O)C(N)CCCCN (stereo not drawn) [MP-13, 1-(4-chlorophenyl)-2-methylpropan-2-yl 2,6-diaminohexanoate] | C (C = 100% increase versus control) | A (A >20%) | –
2.17 | CC(N)C(=O)OC(C)(C)Cc1cc(F)cc(F)c1 (stereo not drawn) [MP-14, 1-(3,5-difluorophenyl)-2-methylpropan-2-yl 2-aminopropanoate] | A, A (A >20%) | A, A (A >20%) | –
2.53 | CC(C)(Cc1ccc(Cl)cc1)OC(=O)C(N)CO (stereo not drawn) [MP-16, 1-(4-chlorophenyl)-2-methylpropan-2-yl 2-amino-3-hydroxypropanoate] | A, A (A >20%) | A, A (A >20%) | –
3.86 | CC(C)(Cc1ccc(Cl)cc1)OC(=O)CCN [MP-17, 1-(4-chlorophenyl)-2-methylpropan-2-yl 3-aminopropanoate] | C (C = 100% increase versus control) | A (A >20%) | –
4.01(2) | C[C@H](N)CC(=O)OC(C)(C)Cc1ccc(Cl)cc1 [MP-18, (S)-1-(4-chlorophenyl)-2-methylpropan-2-yl 3-aminobutanoate] | A (A >20%) | a (a <250%) | –
2.61 | CC(C)(Cc1ccc(Cl)cc1)OC(=O)C1CCCCN1 (stereo not drawn) [MP-19, 1-(4-chlorophenyl)-2-methylpropan-2-yl piperidine-2-carboxylate] | A, A (A >20%) | A, A (A >20%) | –
2.66 | CC(C)(Cc1ccc(Cl)cc1)OC(=O)C1CCCN1 (stereo not drawn) [MP-20, 1-(4-chlorophenyl)-2-methylpropan-2-yl pyrrolidine-2-carboxylate] | B (B >50%) | A (A >20%) | –
3.03 | CNC(C)C(=O)OC(C)(C)Cc1ccc(Cl)cc1 (stereo not drawn) [MP-23, 1-(4-chlorophenyl)-2-methylpropan-2-yl 2-(methylamino)propanoate] | a, a (a <250%) | a, a (a <250%) | –
1.27 | CC(C)(Cc1ccc(F)c(F)c1)NC(=O)C1CCCN1C(=O)OC(C)(C)C (stereo not drawn) [MP-24, tert-butyl 2-(1-(3,4-difluorophenyl)-2-methylpropan-2-ylcarbamoyl)pyrrolidine-1-carboxylate] | a, a (a <250%) | a, a (a <250%) | –
1.23(2) | CC(C)(Cc1ccc(F)c(F)c1)NC(=O)C1CCCN1 (stereo not drawn) [MP-25, N-(1-(3,4-difluorophenyl)-2-methylpropan-2-yl)pyrrolidine-2-carboxamide] | B (B >50%) | A (A >20%) | –
3.45 | CC(N)C(=O)OC(Cc1ccc(Cl)cc1)c1ccccc1 (stereo not drawn) [MP-26] | A, A (A >20%) | A, A (A >20%) | –
2.89 | C[C@H](N)C(=O)NC(C)(Cc1ccc(Cl)cc1)c1ccc(Br)cc1 (stereo partly drawn) [MP-30] | A, A (A >20%) | A, A (A >20%) | –
4.92 | C[C@H](N)C(=O)OC1(Cc2ccc(Cl)cc2)CCCC1 [MP-34, 1-(4-chlorobenzyl)cyclopentyl alaninate] | A, A (A >20%) | A, A (A >20%) | –
– | CC(C)(Cc1ccc(F)c(F)c1)NC(=O)[C@@H](N)c1ccccc1 [MP-37] | a (a <250%) | A (A >20%) | 1.81
– | C[C@H](N)C(=O)OC(C)(C)Cc1ccc(Cl)cc1 [MP-41, 1-(4-chlorophenyl)-2-methylpropan-2-yl L-alaninate] | A, A (A >20%) | A, A (A >20%) | 3.88
– | C[C@@H](N)C(=O)OC(C)(C)Cc1ccc(Cl)cc1 [MP-42, 1-(4-chlorophenyl)-2-methylpropan-2-yl D-alaninate] | a, a (a <250%) | a, a (a <250%) | 3.9
1.59 | C[C@H](N)C(=O)NC(C)(C)Cc1cc(F)cc(F)c1 [MP-43, (S)-2-amino-N-(1-(3,5-difluorophenyl)-2-methylpropan-2-yl)propanamide] | A, A (A >20%) | A, A (A >20%) | –
1.57 | C[C@@H](N)C(=O)NC(C)(C)Cc1cc(F)cc(F)c1 [MP-44, (R)-2-amino-N-(1-(3,5-difluorophenyl)-2-methylpropan-2-yl)propanamide] | A (A >20%) | a (a <250%) | –
1.76 | C[C@H](N)C(=O)NC(C)(C)Cc1ccc(Br)cc1 [MP-47, (S)-2-amino-N-(1-(4-bromophenyl)-2-methylpropan-2-yl)propanamide] | A (A >20%) | B (B >50%) | –
0.4 | C[C@H](N)C(=O)OC(C)(C)Cc1ccncc1 [MP-48, 2-methyl-1-(pyridin-4-yl)propan-2-yl alaninate] | B (B >50%) | A (A >20%) | –
3.36 | C#Cc1ccc(CC(C)(C)OC(=O)[C@H](C)N)cc1 [MP-50, 1-(4-ethynylphenyl)-2-methylpropan-2-yl alaninate] | B (B >50%) | A (A >20%) | –

SMILES | PAMPA (PAMPA) | SirT1 SOμM [1] | SirT1 SμM [1] | PAMPA (PAMPA; PAMPA)
CC(N)C(=O)NC(C)(C)Cc1ccc(Cl)cc1 (stereo not drawn) [MP-15, 2-amino-N-(1-(4-chlorophenyl)-2-methylpropan-2-yl)propanamide] | 2.74 | B (B >50%) | A (A >20%) | –
CC(N)C(=O)NC(C)(C)Cc1ccc(F)c(F)c1 (stereo not drawn) [MP-22, -amino-N-(1-(3,4-difluorophenyl)-2-methylpropan-2-yl)propanamide] | 1.7 | C (C = 100% increase versus control) | A (A >20%) | –
C[C@@H](N)C(=O)NC(C)(C)Cc1ccc(Cl)cc1 [MP-27, (R)-2-amino-N-(1-(4-chlorophenyl)-2-methylpropan-2-yl)propanamide] | 2.72 | a, a (a <250%) | a, a (a <250%) | –
C[C@H](N)C(=O)NC(C)(C)Cc1ccc(Cl)cc1 [MP-28, (S)-2-amino-N-(1-(4-chlorophenyl)-2-methylpropan-2-yl)propanamide] | 2.78 and 2.86 | B (B >50%) | A (A >20%) | –
CC(C)(Cc1ccc(Cl)cc1)NC(=O)C(C)(C)N [MP-29, 2-amino-N-(1-(4-chlorophenyl)-2-methylpropan-2-yl)-2-methylpropanamide] | 2.1 | a, a (a <250%) | a, a (a <250%) | –
C[C@H](N)C(=O)NC(C)(C)Cc1ccc(F)c(F)c1 [MP-35, (S)-2-amino-N-(1-(3,4-difluorophenyl)-2-methylpropan-2-yl)propanamide] | 1.7 | A, A (A >20%) | A, A (A >20%) | –
C[C@@H](N)C(=O)NC(C)(C)Cc1ccc(F)c(F)c1 [MP-36, (R)-2-amino-N-(1-(3,4-difluorophenyl)-2-methylpropan-2-yl)propanamide] | 1.66 | a, a (a <250%) | a, a (a <250%) | –
C[C@H](N)C(=O)NC(C)(C)Cc1cccc(C(F)(F)F)c1 [MP-39, (S)-2-amino-N-(2-methyl-1-(3-(trifluoromethyl)phenyl)propan-2-yl)propanamide] | 1.7 | A, A (A >20%) | A, A (A >20%) | –
C[C@@H](N)C(=O)NC(C)(C)Cc1cccc(C(F)(F)F)c1 [MP-40, (R)-2-amino-N-(2-methyl-1-(3-(trifluoromethyl)phenyl)propan-2-yl)propanamide] | 1.78 | A, A (A >20%) | A, A (A >20%) | –
